Molecules are shown by their SMILES.

We go through 24 compounds from patent US7601746B2 (Shionogi & Co., Ltd., priority 2003, dated 2009).

The assay has as its target T1, human TPO receptor (hTPOR) (Homo sapiens, UniProt P40238).
T1 construct: expressed in transfected cells; host or cells: BaF-B03 (murine IL-3 dependent cell line)
T1 sequence (P40238 26-635): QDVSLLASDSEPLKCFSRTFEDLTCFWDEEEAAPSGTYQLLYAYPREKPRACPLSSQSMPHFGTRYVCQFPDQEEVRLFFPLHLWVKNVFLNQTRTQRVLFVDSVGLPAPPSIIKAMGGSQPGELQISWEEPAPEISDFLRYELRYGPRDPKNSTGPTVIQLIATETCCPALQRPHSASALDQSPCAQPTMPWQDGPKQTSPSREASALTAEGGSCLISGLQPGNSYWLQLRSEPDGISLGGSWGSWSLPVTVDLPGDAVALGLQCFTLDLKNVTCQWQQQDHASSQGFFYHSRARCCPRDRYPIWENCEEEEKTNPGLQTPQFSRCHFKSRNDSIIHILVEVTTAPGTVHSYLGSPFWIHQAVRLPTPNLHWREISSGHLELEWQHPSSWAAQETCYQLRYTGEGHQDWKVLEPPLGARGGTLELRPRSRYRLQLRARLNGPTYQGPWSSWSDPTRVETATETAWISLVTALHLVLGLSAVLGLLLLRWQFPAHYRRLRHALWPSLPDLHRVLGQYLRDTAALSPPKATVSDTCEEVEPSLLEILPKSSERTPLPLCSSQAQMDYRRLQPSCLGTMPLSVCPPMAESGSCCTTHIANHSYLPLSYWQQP
Description: Thrombopoietic activity: proliferation of TPO dependent BaF/hTPOR cells (WST-1, absorbance at 450 nm). The class given is cell-based. The settings on record: 20 h + 4 h WST-1, ED50 = half concentration of the concentration showing the maximum thrombopoietic activity. An excerpt:
The TPO dependent BaF/hTPOR cell line which was established by introducing human TPO receptor (hTPOR) into BaF-B03 cells according to Collins et al (J. Cell. Physiol., 137:293-298 (1988)) was used to test the thrombopoietic activity of the present compound. The DNA sequences and encoded peptide sequences for human hTPOR have been described by Vigon et al (Proc. Natl. Acad. Sci. USA, 89:5640-5644 (1992)). TPO dose not have any ability to support proliferation of interlukin-3 dependent parental cell line BaF-B03. BAF/hTPOR cells were maintained in RPMI medium and WEHI-3B conditioned medium as a source of murine interleukin-3 (IL-3). These cells were washed and resuspended in RPMI medium without a source of murine IL-3 and seeded into each well of 96-well microtiter plates at a density of 5×10^4 cells per well in the absence or presence of various concentration of hTPO or the present compound. After incubation at 37° C. for 20 hours in the 5% CO2 incubator, 10% WST-1 reagent (Takara Biomedicals, Japan) was added to each wells and the cells were further incubated for 4 hours. The absorbance at 450 nm was measured. Tables 1 and 2 exemplify the ED50 for tested compounds of the present invention, wherein the ED50 is the half concentration of the concentration showing the maximum thrombopoietic activity.
In general terms: Tetrazolium dyes change colour on reduction, which living cells bring about.

Consider `CCC(CC)OCc1cccc(-c2csc(NC(=O)c3cc(F)c(/C=C(\C)C(=O)O)c(F)c3)n2)c1OC` [Compound B1890, (E)-3-(4-{4-[3-(1-ethylpropyloxymethyl)-2-methyloxyphenyl]thiazol-2-ylcarbamoyl}-2,6-difluorophenyl)-2-methylacrylic acid], for which the EC50 (in general, the concentration at which the effect is half-maximal) (Table 1) was found to be 0.0181 µM.

Take `CCCCOCc1cccc(-c2csc(NC(=O)c3cc(F)c(/C=C(\C)C(=O)O)c(F)c3)n2)c1OC` [Compound B1997, (E)-3-{4-[4-(3-butyloxymethyl-2-methyloxyphenyl)thiazol-2-ylcarbamoyl]-2,6-difluorophenyl}-2-methylacrylic acid]: the 50% effective concentration (EC50) (Table 1) was found to be 0.0155 µM. On the same count and under the same terms, next, `CCCCCCCOc1cccc(-c2csc(NC(=O)c3cc(Cl)c(/C=C(\C)C(=O)O)c(Cl)c3)n2)c1OC` [Compound B1999, (E)-3-{2,6-dichloro-4-[4-(3-heptyloxy-2-methyloxyphenyl)thiazol-2-ylcarbamoyl]phenyl}-2-methylacrylic acid]: 0.0132 µM. Still for that read-out and setting: next, `CCCCCCCOCCc1cccc(-c2csc(NC(=O)c3cc(F)c(/C=C(\C)C(=O)O)c(F)c3)n2)c1OC` [Compound B1952, (E)-3-(2,6-difluoro-4-{4-[3-(2-heptyloxyethyl)-2-methyloxyphenyl]thiazol-2-ylcarbamoyl}phenyl)-2-methylacrylic acid]: 0.0101 µM; `CCCc1cccc2c1OCc1sc(NC(=O)c3cc(F)c(/C=C(\C)C(=O)O)c(F)c3)nc1-2` [Compound A1308, (E)-3-[2,6-difluoro-4-(6-propyl-4H-chromeno[4,3-d]thiazol-2-ylcabamoyl)phenyl]-2-methylacrylic acid]: 0.0129 µM. For `CO/C(=C\c1c(F)cc(C(=O)Nc2nc(-c3cccc(CCCOCC(C)(C)C)c3F)c(OC)s2)cc1F)C(=O)O` [Compound B1904, (Z)-3-[4-(4-{3-[3-(2,2-dimethylpropyloxy)propyl]-2-fluorophenyl}-5-methyloxythiazol-2-ylcarbamoyl)-2,6-difluorophenyl]-2-methyloxyacrylic acid], the 50% effective concentration (EC50) (Table 2) is 0.0246 µM. For `CCCCCCOCCC(OC)c1cccc(-c2csc(NC(=O)c3cc(F)c(C=C(C)C(=O)O)c(F)c3)n2)c1F` (stereo not drawn) [Compound B52, 3-(2,6-difluoro-4-{4-[2-fluoro-3-(3-n-hexyloxy-1-methyloxyproyl)phenyl]thiazol-2-ylcarbamoyl}phenyl)-2-methylacrylic acid], the EC50 (Table 1) is 0.0017 µM. In the case of `CCCCCCCOc1cccc(-c2csc(NC(=O)c3cc(F)c(/C=C(\C)C(=O)O)c(F)c3)n2)c1OC` [Compound B1998, (E)-3-{2,6-difluoro-4-[4-(3-heptyloxy-2-methyloxyphenyl)thiazol-2-ylcarbamoyl]phenyl}-2-methylacrylic acid], the EC50 (Table 1) was 0.00835 µM.

Consider `CO/C(=C\c1c(Cl)cc(C(=O)Nc2nc(-c3cccc(CCOCCCC(C)C)c3OC)cs2)cc1Cl)C(=O)O` [Compound B1923, (Z)-3-[2,6-dichloro-4-(4-{2-methyloxy-3-[2-(4-methylpentyloxy)ethyl]phenyl}thiazol-2-ylcarbamoyl)phenyl)-2-methyloxyacrylic acid], for which the EC50 (Table 2) worked out at 0.0202 µM. In the case of `CCC(CC)COCc1cccc(-c2csc(NC(=O)c3cc(F)c(/C=C(\OC)C(=O)O)c(F)c3)n2)c1OC` [Compound B2024, (Z)-3-(4-{4-[3-(2-ethylbutyloxymethyl)-2-methyloxyphenyl]thiazol-2-ylcarbamoyl}-2,6-difluorophenyl)-2-methyloxyacrylic acid], the 50% effective concentration (EC50) (Table 1) was found to be 0.00996 µM.

Consider `CCCCOC(CCCC)c1cccc(-c2csc(NC(=O)c3cc(F)c(C=C(C)C(=O)O)c(F)c3)n2)c1F` (stereo not drawn) [Compound B42, 3-(4-{4-[3-(1-n-butyloxypentyl)-2-fluorophenyl]thiazol-2-ylcarbamoyl}-2,6-difluorophenyl]-2-methylacrylic acid], for which the half-maximal effective concentration (EC50) (Table 1) turned out to be 0.00034 µM.

With `CCCCCOC(CCSC)c1cccc(-c2csc(NC(=O)c3cc(F)c(C=C(C)C(=O)O)c(F)c3)n2)c1F` (stereo not drawn) [Compound B16, 3-(2,6-difluoro-4-{4-[2-fluoro-3-(3-methylthio-1-n-pentyloxypropyl)phenyl]thiazol-2-ylcarbamoyl}phenyl)-2-methylacrylic acid], the EC50 (Table 1) amounted to 0.00077 µM. In the case of `CCCc1cccc2c1OCc1sc(NC(=O)c3cc(Cl)c(/C=C(\C)C(=O)O)c(Cl)c3)nc1-2` [Compound A1311, (E)-3-[2,6-dichloro-4-(6-propyl-4H-chromeno[4,3-d]thiazol-2-ylcabamoyl)phenyl]-2-methylacrylic acid], the EC50 (Table 1) was determined as 0.00886 µM.

In the case of `CO/C(=C\c1c(Cl)cc(C(=O)Nc2nc(-c3cccc(CCCOCC(C)(C)C)c3F)c(OC)s2)cc1Cl)C(=O)O` [Compound B1905], the EC50 (Table 2) was 0.0267 µM. For the compound `CCCCCOC(c1cccc(-c2csc(NC(=O)c3cc(F)c(C=C(C)C(=O)O)c(F)c3)n2)c1F)C(C)(C)C` (stereo not drawn) [Compound B15, 3-(2,6-difluoro-4-{4-[3-(2,2-dimethyl-1-n-pentyloxypropyl)-2-fluorophenyl]thiazol-2-ylcarbamoyl}phenyl)-2-methylacrylic acid], the 50% effective concentration (EC50) (Table 1) is 0.00073 µM. As for `CCCCCC(OC)c1cccc(-c2nc(NC(=O)c3cc(Cl)c(/C=C(\OC)C(=O)O)c(Cl)c3)sc2OC)c1F` (stereo not drawn) [Compound B1861, (Z)-3-(2,6-dichloro-4-{4-[2-fluoro-3-(1-methyloxyhexyl)phenyl]-5-methyoxythiazol-2-ylcarbamoyl}phenyl)-2-methyloxyacrylic acid], where the note is “Table 2”, the 50% effective concentration (EC50) was 0.0228 µM. As for `CCCCCC(OC)c1cccc(-c2csc(NC(=O)c3cc(F)c(/C=C(\C)C(=O)O)c(F)c3)n2)c1OC` (stereo not drawn) [Compound B347, (E)-3-(2,6-difluoro-4-{4-[2-methyloxy-3-(1-methyloxyhexyl)phenyl]thiazol-2-ylcarbamoyl}phenyl)-2-methylacrylic acid], the EC50 (Table 1) is 0.0187 µM. Still for that read-out and setting: next, `C/C(=C\c1c(F)cc(C(=O)Nc2nc3c(s2)COc2c(CCC(C)(C)C)cccc2-3)cc1F)C(=O)O` [Compound A1315, (E)-3-{4-[6-(3,3-dimethylbutyl)-4H-chromeno[4,3-d]thiazol-2-ylcabamoyl]-2,6-difluorophenyl}-2-methylacrylic acid]: 0.0125 µM; `CC(=Cc1c(F)cc(C(=O)Nc2nc(-c3cccc(CCC(C)(C)C)c3F)cs2)cc1F)C(=O)O` [Compound B2, 3-(2,6-difluoro-4-{4-[3-(3,3-dimethylbutyl)-2-fluorophenyl]thiazol-2-ylcarbamoyl}phenyl)-2-methylacrylic acid]: 0.004 µM. Same read-out and setting: next, `CCCCCOC(CC)c1cccc(-c2csc(NC(=O)c3cc(Cl)c(C=C(C)C(=O)O)c(Cl)c3)n2)c1F` (stereo not drawn) [Compound B67, 3-[2,6-dichloro-4-(4-{3-[1-n-pentyloxypropyl]-2-fluorophenyl}thiazol-2-ylcarbamoyl)phenyl]-2-methylacrylic acid]: 0.00048 µM. Turning to `CO/C(=C\c1c(Cl)cc(C(=O)Nc2nc(-c3cccc(CCCOCC(C)(C)C)c3)c(OC)s2)cc1Cl)C(=O)O` [Compound B1901, (Z)-3-[2,6-dichloro-4-(4-{3-[3-(2,2-dimethylpropyloxy)propyl]phenyl}-5-methyloxythiazol-2-ylcarbamoyl)phenyl]-2-methyloxyacrylic acid], the EC50 (Table 2) was found to be 0.0243 µM. On to `COc1c(COCCC(C)C)cccc1-c1csc(NC(=O)c2cc(F)c(/C=C(\C)C(=O)O)c(F)c2)n1` [Compound B2027, (E)-3-(2,6-difluoro-4-{4-[2-methyloxy-3-(3-methylbutyloxymethyl)phenyl]thiazol-2-ylcarbamoyl}phenyl)-2-methylacrylic acid], for which the concentration for a half-maximal effect (EC50) (Table 1) is 0.0126 µM.

`CCCCOC(CC)c1cccc(-c2csc(NC(=O)c3cc(F)c(/C=C(\C)C(=O)O)c(F)c3)n2)c1OC` (stereo not drawn) [Compound B418, (E)-3-(4-{4-[3-(1-butyloxypropyl)-2-methyloxyphenyl]thiazol-2-ylcarbamoyl}-2,6-difluorophenyl)-2-methylacrylic acid]: the EC50 (Table 1) was determined as 0.0063 µM.

In the case of `COc1cccc(-c2csc(NC(=O)c3cc(Cl)c(/C=C(\C)C(=O)O)c(Cl)c3)n2)c1F` [Compound B2018, (E)-3-{2,6-dichloro-4-[4-(2-fluoro-3-methyloxyphenyl)thiazol-2-ylcarbamoyl]phenyl}-2-methylacrylic acid], the EC50 (Table 2) stood at 0.0235 µM.
